Counter-ions that a name gives are not always drawn.
Test system: carrageenin-induced foot edema
Assay: inhibition of carrageenin-induced foot edema test (C.E.)
Assay type: in vivo
Settings: oral; for inhibition in vivo at 4 µmol/kg: dose 0.004 millimoles/kg; for inhibition in vivo at 4 µmol/kg / inhibition in vivo at 20 µmol/kg / inhibition in vivo at 80 µmol/kg / inhibition in vivo at 324 µmol/kg: read-out: C.E. percent inhibition; for inhibition in vivo at 20 µmol/kg: dose 0.02 millimoles/kg; for C.E. percent inhibition (Table B): formula V amides
Description: Anti-inflammatory activity was determined using (1) the inhibition of carrageenin-induced foot edema test essentially described by Winter et al., Proc. Soc. Exp. Biol. and Med. 111, 554 (1962) as modified by Van Arman et al., J. Pharmacol. Exptl. Therap. 150, 328 (1965) and (2) a modification of the inhibition of adjuvant-induced arthritis test described by Pierson, J. Chronic Diseases 16, 863 (1963) and Glenn et al., Am. J. Vet. Res. 26, 1180 (1965).
The N-{2-,3- and 4-[R1 -(phenyl)-C(=X)]-phenyl-lower-alkyl}amines of formulas I, Ia and Ib of the invention have been tested in the carrageenin edema (CE) and adjuvant arthritis (AA) tests and found to have anti-inflammatory activity. For comparative purposes, data obtained in the carrageenin edema test on the reference compound (designated "Ref."), 4[(3-benzoylphenyl)methyl]morpholine, disclosed in French Patent 1,549,342, are also given. All data were obtained on oral administration.

| SMILES | inhibition in vivo at 4 µmol/kg | inhibition in vivo at 20 µmol/kg | inhibition in vivo at 80 µmol/kg (dose 0.08 millimoles/kg) | inhibition in vivo at 324 µmol/kg (dose 0.324 millimoles/kg) | C.E. percent inhibition (Table B) (dose 0.08 millimoles/kg) | C.E. percent inhibition (Table B) (dose 0.324 millimoles/kg) |
| --- | --- | --- | --- | --- | --- | --- |
| OC(c1ccccc1)c1cccc(CCN2CCCCC2CC2CCCCC2)c1 (stereo not drawn) [Example 1A, 2-Cyclohexylmethyl-1-{2-[3-(α-hydroxybenzyl)phenyl]ethyl}piperidine] | 0% | 0% | 51% | 62% | – | – |
| O=C(c1ccccc1)c1cccc(CCN2CCOCC2)c1 [Example 1C, 4-[2-(3-Benzoylphenyl)ethyl]morpholine hydrochloride monohydrate] | – | – | 40% | 77% | – | – |
| CN(C)CCCNCCc1cccc(C(=O)c2ccccc2)c1 [Example 1D, N-[2-(3-Benzoylphenyl)ethyl]-N-(3-dimethylaminopropyl)amine dihydrochloride hemi-hydrate] | – | – | 36% | 65% | – | – |
| CC(C(=O)N1CCN(C2CCCC2)CC1)c1cccc(C(=O)c2ccccc2)c1.Cl (stereo not drawn) [Example 1J, 4-Cyclopentyl-1-[α-(3-benzoylphenyl)propionyl]piperazine hydrochloride] | – | – | – | – | 18% | 72% |
| CC(CN1CCCCC1CC1CCCCC1)c1cccc(C(O)c2cccc(Cl)c2)c1 (stereo not drawn) [Example 3A, 2-Cyclohexylmethyl-1-{2-[3-(α-hydroxy-3-chlorobenzyl)phenyl]propyl}piperidine] | 0% | 0% | 34% | 75% | – | – |
| CC(CN1CCCCC1CCCC1CCCCC1)c1cccc(C(O)c2ccccc2)c1 (stereo not drawn) [Example 3E, 2-(3-Cyclohexylpropyl)-1-{2-[3-(α-hydroxybenzyl)phenyl]propyl}piperidine] | 14% | 34% | – | – | – | – |
| Cc1ccc(C(O)c2cccc(C(C)CN3CCCCC3CC3CCCCC3)c2)cc1 (stereo not drawn) [Example 4, 2-cyclohexylmethyl-1-{2-[3-(α-hydroxy-4-methylbenzyl)phenyl]propyl}piperidine] | 0% | 1% | 18% | 72% | – | – |
| CC(CN1CCCCC1CC1CCCCC1)c1cccc(C(O)c2c(Cl)cccc2Cl)c1 (stereo not drawn) [Example 5A, 2-Cyclohexylmethyl-1-{2-[3-(α-hydroxy-2,6-dichlorobenzyl)phenyl]propyl}piperidine] | 0% | 0% | 58% | 68% | – | – |
| CC(CN1CCCCC1CC1CCCCC1)c1cccc(C(C)(O)c2ccccc2)c1 (stereo not drawn) [Example 6, 2-cyclohexylmethyl-1-{2-[3-(α-hydroxy-α-methylbenzyl)phenyl]propyl}piperidine] | 14% | 5% | 28% | 55% | – | – |
| Cc1ccc(C(=O)c2cccc(C(C)CN3CCCCC3CC3CCCCC3)c2)cc1 (stereo not drawn) [Example 7C, 2-Cyclohexylmethyl-1-{2-[3-(4-methylbenzoyl)phenyl]propyl}piperidine] | 0% | 10% | 58% | 75% | – | – |
| CC1CN(CC(C)c2cccc(C(=O)c3ccccc3)c2)CC(C)O1 (stereo not drawn) [Example 7J, 2,6-Dimethyl-4-[2-(3-benzoylphenyl)propyl]morpholine cyclohexanesulfamate] | – | – | 62% | 66% | – | – |
| Cc1ccccc1C(=O)c1cccc(C(C)CN2CCCCC2CC2CCCCC2)c1 (stereo not drawn) [Example 8, 2-cyclohexylmethyl-1-{2-[3-(2-methylbenzoyl)phenyl]propyl}piperidine] | 2% | 21% | 33% | 68% | – | – |
| Cc1cccc(C(=O)c2cccc(C(C)CN3CCCCC3CC3CCCCC3)c2)c1 (stereo not drawn) [Example 9, 2-cyclohexylmethyl-1-{2-[3-(3-methylbenzoyl)phenyl]propyl}piperidine] | 0% | 0% | 21% | 47% | – | – |
